Reference: ChEMBL document CHEMBL6096690, “Synthesis and Biological Evaluation of Peripheral HTR2A Antagonists for Colorectal Cancer” (J Med Chem, 2025)

Target: 5-hydroxytryptamine receptor 2A (Homo sapiens, UniProt P28223)
Test: Antagonist activity at 5HTR2A (unknown origin) assessed as inhibition of 5-HTR2A

5-hydroxytryptamine receptor 2A, sequence (P28223 whole entry): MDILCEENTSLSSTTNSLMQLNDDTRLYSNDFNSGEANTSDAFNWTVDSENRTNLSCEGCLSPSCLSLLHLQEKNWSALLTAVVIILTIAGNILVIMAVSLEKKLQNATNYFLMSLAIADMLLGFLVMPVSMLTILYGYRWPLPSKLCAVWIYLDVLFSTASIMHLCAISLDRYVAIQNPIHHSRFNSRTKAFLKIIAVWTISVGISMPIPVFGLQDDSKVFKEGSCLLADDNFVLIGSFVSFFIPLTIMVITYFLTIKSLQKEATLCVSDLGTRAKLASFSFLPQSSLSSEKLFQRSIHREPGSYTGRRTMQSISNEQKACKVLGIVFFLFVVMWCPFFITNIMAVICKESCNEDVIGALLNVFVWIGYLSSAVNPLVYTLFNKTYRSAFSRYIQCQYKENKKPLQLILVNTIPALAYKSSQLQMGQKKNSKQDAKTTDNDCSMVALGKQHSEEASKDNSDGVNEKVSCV

IC50: 667 nM
Structure (SMILES): O=C(c1ccc(F)cc1)C1CCN(CC(O)COc2ccc(CNC(=O)N(Cc3ccc(F)cc3)C3CCNCC3)cc2)CC1 (stereo unspecified)
